Measurements as given in patent US20240228535A1 (priority 2022, published 2024).

Target: SARS2 coronavirus 3CL protease (Severe acute respiratory syndrome coronavirus 2, UniProt P0DTD1)
Test: biochemical
Details: 5 nM enzyme, 30 min pre-incubation with compound, 15 μM peptide substrate, 4 h at room temperature; read-out: FRET Potency (nM); IC50 values in the SARS2 3CLPro FRET assay

Q: For `CNC(=O)C(=O)[C@H](C[C@@H]1C[C@@H](C)NC1=O)NC(=O)c1cc(Cl)ccc1NC(=O)C1CC1(F)F` (single isomer, unassigned) [Example 14], which IC50 is on record?
A: 46.4 nM

Q: Which IC50 does the source give for `CNC(=O)C(=O)[C@H](C[C@@H]1C[C@@H](C)NC1=O)NC(=O)c1cc(Cl)ccc1NC(=O)C1CCC(F)(F)C1` (single isomer, unassigned) [Example 16] here?
A: 31.6 nM

Q: With `CNC(=O)C(=O)[C@H](C[C@@H]1C[C@@H](C)NC1=O)NC(=O)c1cc(Cl)ccc1NC(=O)C1CC1(F)F` (single isomer, unassigned) [Example 60] as the compound, how does the IC50 read?
A: 7.9 nM

Q: How did the IC50 turn out when `CNC(=O)C(=O)[C@H](C[C@@H]1C[C@@H](C)NC1=O)NC(=O)c1cc(Cl)ccc1NC(=O)C1CCC(F)(F)C1` (single isomer, unassigned) [Example 65] was run?
A: 7.2 nM

Q: With `CNC(=O)C(=O)[C@H](C[C@@H]1C[C@@H](C)NC1=O)NC(=O)c1cc(Cl)ccc1NC(=O)C1CCCC(F)(F)C1` (single isomer, unassigned) [Example 198] as the compound, how does the IC50 read?
A: 5.5 nM

Q: For `CNC(=O)C(=O)[C@H](C[C@@H]1C[C@@H](C)NC1=O)NC(=O)c1cc(Cl)ccc1NC(=O)C1CCCC(F)(F)C1` (single isomer, unassigned) [Example 199], which IC50 is on record?
A: 18.7 nM

Q: With `CNC(=O)C(=O)[C@H](C[C@@H]1C[C@@H](C)NC1=O)NC(=O)c1cc(Cl)ccc1NC(=O)C(C)c1ccc(C(F)(F)F)nc1` (single isomer, unassigned) [Example 229] as the compound, how does the IC50 read?
A: 33.5 nM

Q: Which IC50 does the source give for `CNC(=O)C(=O)[C@H](C[C@@H]1C[C@@H](C)NC1=O)NC(=O)c1cc(Cl)ccc1NC(=O)C(C)c1ccc(C(F)(F)F)nc1` (single isomer, unassigned) [Example 230] here?
A: 7 nM

Q: Which IC50 does the source give for `C[C@@H]1C[C@@H](C[C@H](NC(=O)c2cc(Cl)ccc2NC(=O)C2(C(F)(F)F)CC2)C(=O)C(=O)NC2CC2)C(=O)N1` [Example 1, 5-chloro-N—((S)-4-(cyclopropylamino)-1-((3S,5R)-5-methyl-2-oxopyrrolidin-3-yl)-3,4 dioxobutan-2-yl)-2-(1-(trifluoromethyl)cyclopropane-1-carboxamido)benzamide] here?
A: 7.5 nM

Q: Which IC50 does the source give for `C[C@@H]1C[C@@H](C[C@H](NC(=O)c2cc(Cl)ccc2NC(=O)c2ccnc(C(F)(F)F)c2)C(=O)C(=O)NC2CC2)C(=O)N1` [Example 2, N-(4-chloro-2-(((S)-4-(cyclopropylamino)-1-((3S,5R)-5-methyl-2-oxopyrrolidin-3-yl)-3,4-dioxobutan-2-yl)carbamoyl)phenyl)-2-(trifluoromethyl)isonicotinamide] here?
A: 5.6 nM

Q: With `C[C@@H]1C[C@@H](C[C@H](NC(=O)c2cc(Cl)ccc2NC(=O)CCC(F)(F)F)C(=O)C(=O)NC2CC2)C(=O)N1` [Example 3, 5-chloro-N—((S)-4-(cyclopropylamino)-1-((3S,5R)-5-methyl-2-oxopyrrolidin-3-yl)-3,4-dioxobutan-2-yl)-2-(4,4,4-trifluorobutanamido)benzamide] as the compound, how does the IC50 read?
A: 6.9 nM

Q: With `CNC(=O)C(=O)[C@H](C[C@@H]1C[C@@H](C)NC1=O)NC(=O)c1cc(C#N)cnc1NC(=O)c1cc(C(F)(F)F)cc(C(F)(F)F)c1` [Example 4, 2-(3,5-bis(trifluoromethyl)benzamido)-5-cyano-N—((S)-1-((3S,5R)-5-methyl-2-oxopyrrolidin-3-yl)-4-(methylamino)-3,4-dioxobutan-2-yl)nicotinamide] as the compound, how does the IC50 read?
A: 11.5 nM

Q: For `C[C@@H]1C[C@@H](C[C@H](NC(=O)c2cc(Cl)cnc2NC(=O)C23CC(C(F)(F)F)(C2)C3)C(=O)C(=O)NC2CC2)C(=O)N1` [Example 5, 5-chloro-N—((S)-4-(cyclopropylamino)-1-((3S,5R)-5-methyl-2-oxopyrrolidin-3-yl)-3,4-dioxobutan-2-yl)-2-(3-(trifluoromethyl)bicyclo[1.1.1]pentane-1-carboxamido)nicotinamide], which IC50 is on record?
A: 8.7 nM

Q: `CC(C)OC(=O)Nc1ccc(Cl)cc1C(=O)N[C@@H](C[C@@H]1C[C@@H](C)NC1=O)C(=O)C(=O)NC1CC1` [Example 6, isopropyl (4-chloro-2-(((S)-4-(cyclopropylamino)-1-((3S,5R)-5-methyl-2-oxopyrrolidin-3-yl)-3,4-dioxobutan-2-yl)carbamoyl)phenyl)carbamate] was tested. Which IC50 did it give?
A: 4.8 nM

Q: Which IC50 does the source give for `C[C@@H]1C[C@@H](C[C@H](NC(=O)c2cc(Cl)ccc2NC(=O)[C@H]2CC2(F)F)C(=O)C(=O)NC2CC2)C(=O)N1` [Example 8, 5-chloro-N—((S)-4-(cyclopropylamino)-1-((3S,5R)-5-methyl-2-oxopyrrolidin-3-yl)-3,4-dioxobutan-2-yl)-2-((R)-2,2-difluorocyclopropane-1-carboxamido)benzamide] here?
A: 10.1 nM

Q: How did the IC50 turn out when `CNC(=O)C(=O)[C@H](C[C@@H]1C[C@@H](C)NC1=O)NC(=O)c1cc(Cl)ccc1NC(=O)OC` [Example 9, methyl (4-chloro-2-(((S)-1-((3S,5R)-5-methyl-2-oxopyrrolidin-3-yl)-4-(methylamino)-3,4-dioxobutan-2-yl)carbamoyl)phenyl)carbamate] was run?
A: 7.3 nM

Q: How did the IC50 turn out when `CNC(=O)C(=O)[C@H](C[C@@H]1C[C@@H](C)NC1=O)NC(=O)c1cc(Cl)ccc1NC(=O)OC1CC1` [Example 10, cyclopropyl (4-chloro-2-(((S)-1-((3S,5R)-5-methyl-2-oxopyrrolidin-3-yl)-4-(methylamino)-3,4-dioxobutan-2-yl)carbamoyl)phenyl)carbamate] was run?
A: 3.9 nM

Q: Which IC50 does the source give for `CNC(=O)C(=O)[C@H](C[C@@H]1CCNC1=O)NC(=O)c1cc(Cl)ccc1NC(=O)OC1CC1` [Example 11, cyclopropyl (4-chloro-2-(((S)-4-(methylamino)-3,4-dioxo-1-((S)-2-oxopyrrolidin-3-yl)butan-2-yl)carbamoyl)phenyl)carbamate] here?
A: 4.8 nM

Q: `O=C(NC1CC1)C(=O)[C@H](C[C@@H]1CCNC1=O)NC(=O)c1cc(F)ccc1NC(=O)C1(C(F)(F)F)CC1` [Example 12, N-[(1S)-3-(cyclopropylamino)-2,3-dioxo-1-[[(3S)-2-oxopyrrolidin-3-yl]methyl]propyl]-5-fluoro-2-[[1-(trifluoromethyl)cyclopropane-carbonyl]amino]benzamide] was tested. Which IC50 did it give?
A: 48.2 nM

Q: With `C[C@@H]1C[C@@H](C[C@H](NC(=O)c2cc(C#N)ccc2NC(=O)C23CC(F)(C2)C3)C(=O)C(=O)NC2CC2)C(=O)N1` [Example 13] as the compound, how does the IC50 read?
A: 46.7 nM

Q: `C[C@@H]1C[C@@H](C[C@H](NC(=O)c2cc(Cl)ccc2NC(=O)C(C)(C)C(F)(F)F)C(=O)C(=O)NC2CC2)C(=O)N1` [Example 15, 5-chloro-N-[(1S)-3-(cyclopropylamino)-1-[[(3S,5R)-5-methyl-2-oxo-pyrrolidin-3-yl]methyl]-2,3-dioxo-propyl]-2-[(3,3,3-trifluoro-2,2-dimethyl-propanoyl)amino]benzamide] was tested. Which IC50 did it give?
A: 33.5 nM

Q: For `C[C@@H]1C[C@@H](C[C@H](NC(=O)c2cc(C#N)ccc2NC(=O)C23CC(C(F)(F)F)(C2)C3)C(=O)C(=O)NC2CC2)C(=O)N1` [Example 17], which IC50 is on record?
A: 31.1 nM

Q: Which IC50 does the source give for `CNC(=O)C(=O)[C@H](C[C@@H]1C[C@@H](C)NC1=O)NC(=O)c1cc(OC(F)F)cnc1NC(=O)c1cccc(C(F)(F)F)c1` [Example 18, 5-(difluoromethoxy)-N-[(1S)-3-(methylamino)-1-[[(3S,5R)-5-methyl-2-oxo-pyrrolidin-3-yl]methyl]-2,3-dioxo-propyl]-2-[[3-(trifluoromethyl)benzoyl]amino]pyridine-3-carboxamide] here?
A: 31.1 nM

Q: Which IC50 does the source give for `CNC(=O)C(=O)[C@H](C[C@@H]1C[C@@H](C)NC1=O)NC(=O)c1cc(Cl)ccc1NC(=O)C(C)C(F)(F)F` (stereo partly drawn) [Example 19, 5-chloro-N-[(1S)-3-(methylamino)-1-[[(3S,5R)-5-methyl-2-oxo-pyrrolidin-3-yl]methyl]-2,3-dioxo-propyl]-2-[(3,3,3-trifluoro-2-methyl-propanoyl)amino]benzamide] here?
A: 28.2 nM

Q: `C[C@@H]1C[C@@H](C[C@H](NC(=O)c2cc(OC(F)F)ccc2NC(=O)c2cccc(C(F)(F)F)c2)C(=O)C(=O)NC2CC2)C(=O)N1` [Example 20, N-[(1S)-3-(cyclopropylamino)-1-[[(3S,5R)-5-methyl-2-oxo-pyrrolidin-3-yl]methyl]-2,3-dioxo-propyl]-5-(difluoromethoxy)-2-[[3-(trifluoromethyl)benzoyl]amino]benzamide] was tested. Which IC50 did it give?
A: 26.4 nM

Q: For `CNC(=O)C(=O)[C@H](C[C@@H]1C[C@@H](C)NC1=O)NC(=O)c1cc(Cl)ccc1NC(=O)C1CC(F)(F)C1` [Example 21, 5-chloro-2-[(3,3-difluorocyclobutanecarbonyl)amino]-N-[(1S)-3-(methylamino)-1-[[(3S,5R)-5-methyl-2-oxo-pyrrolidin-3-yl]methyl]-2,3-dioxo-propyl]benzamide], which IC50 is on record?
A: 24.9 nM

Q: How did the IC50 turn out when `C[C@@H]1C[C@@H](C[C@H](NC(=O)c2cc(Cl)cnc2NC(=O)C2(C(F)(F)F)CC2)C(=O)C(=O)NC2CC2)C(=O)N1` [Example 22, 5-chloro-N-[(1S)-3-(cyclopropylamino)-1-[[(3S,5R)-5-methyl-2-oxo-pyrrolidin-3-yl]methyl]-2,3-dioxo-propyl]-2-[[1-(trifluoromethyl)cyclopropane-carbonyl]amino]pyridine-3-carboxamide] was run?
A: 22.6 nM

Q: How did the IC50 turn out when `C[C@@H]1C[C@@H](C[C@H](NC(=O)c2cc(F)cnc2NC(=O)C2CC(F)(F)C2)C(=O)C(=O)NC2CC2)C(=O)N1` [Example 23, N-[(1S)-3-(cyclopropylamino)-1-[[(3S,5R)-5-methyl-2-oxo-pyrrolidin-3-yl]methyl]-2,3-dioxo-propyl]-2-[(3,3-difluorocyclobutanecarbonyl)amino]-5-fluoro-pyridine-3-carboxamide] was run?
A: 20.6 nM

Q: `CNC(=O)C(=O)[C@H](C[C@@H]1C[C@@H](C)NC1=O)NC(=O)c1cc(Cl)ccc1NC(=O)C(C)C(F)(F)F` (stereo partly drawn) [Example 24, 5-chloro-N-[(1S)-3-(methylamino)-1-[[(3S,5R)-5-methyl-2-oxo-pyrrolidin-3-yl]methyl]-2,3-dioxo-propyl]-2-[(3,3,3-trifluoro-2-methyl-propanoyl)amino]benzamide] was tested. Which IC50 did it give?
A: 18.6 nM

Q: How did the IC50 turn out when `C[C@@H]1C[C@@H](C[C@H](NC(=O)c2cc(F)ccc2NC(=O)C2(C(F)(F)F)CC2)C(=O)C(=O)NC2CC2)C(=O)N1` [Example 25, N-[(1S)-3-(cyclopropylamino)-1-[[(3S,5R)-5-methyl-2-oxo-pyrrolidin-3-yl]methyl]-2,3-dioxo-propyl]-5-fluoro-2-[[1-(trifluoromethyl)cyclopropane-carbonyl]amino]benzamide] was run?
A: 18.1 nM
